For orientation: IC50 means the concentration that inhibits the measured activity by half.

The target of one assay is PKC α (Homo sapiens, UniProt P17252). Kind of assay: Protein Kinase C Scintillation Proximity Assay (SPA), PKC-α. In kind it is biochemical. Also on record: purchased PanVera, Madison Wis; host or cells: baculovirus expression vector. Conditions: inhibition value, recombinant human isozyme, 1 μM ATP. How it is done: (§1) The binding activity of a compound for Protein Kinase C (PKC) was assessed using a homogeneous Scintillation Proximity Assay according to the procedure below.
The reaction was incubated for 15 min at 30° C. Reactions were terminated by the addition of streptavidin-coated SPA beads (Amersham) in a solution containing 1 mM EGTA, 10 mM EDTA and 100 μM ATP. Beads were allowed to settle overnight and the plates read in a Wallac MICROBETA scintillation counter (PerkinElmer Life sciences, Wellesley, Mass.).
A general note: Scintillation proximity formats need no separation of bound from free tracer.

The next assay has as its target T1, PKC-βII (Homo sapiens, UniProt P05771).
T1 construct: purchased PanVera, Madison Wis; host or cells: baculovirus expression vector
In words: Protein Kinase C Scintillation Proximity Assay (SPA), PKC-βII. It counts as biochemical. Particulars: inhibition value, recombinant human isozyme, 1 μM ATP. How it is done:
as §1
(§2) The different human PKC isozymes (were obtained from PanVera, Madison Wis. and had been prepared as recombinant enzymes produced from a baculovirus expression vector) were added to a reaction mixture containing a test compound, 20 mM HEPES (pH 7.4), 100 μM CaCl2, 10 mM MgCl2, 100 μg/mL phosphatidylserine, 20 μg/mL diacylglycerol, 1 μM ATP, 0.8 μCi (^33P)ATP, and 5 μg/mL biotinylated substrate peptide (Jing Zhao et al., J. Bio. Chem., 1998, 273, 23072). The reaction was incubated for 15 min at 30° C. Reactions were terminated by the addition of streptavidin-coated SPA beads (Amersham) in a solution containing 1 mM EGTA, 10 mM EDTA and 100 μM ATP. Beads were allowed to settle overnight and the plates read in a Wallac MICROBETA scintillation counter (PerkinElmer Life sciences, Wellesley, Mass.).
(§3) Values for inhibition of various PKC isozymes and GSK 3-β by certain compounds of the invention tested in the PKC SPA and GSK 3-β assays are shown in Table 1.

The next assay deals with T2, PKC-γ (Homo sapiens, UniProt P05129).
T2 construct: purchased PanVera, Madison Wis; host or cells: baculovirus expression vector
In words: Protein Kinase C Scintillation Proximity Assay (SPA), PKC-γ. It counts as biochemical. Particulars: inhibition value, recombinant human isozyme, 1 μM ATP. The procedure: as §1, §2, §3

The target of the next assay is T3, PKC-βI (Homo sapiens, UniProt P05771).
T3 construct: purchased PanVera, Madison Wis; host or cells: baculovirus expression vector
Kind of assay: Protein Kinase C Scintillation Proximity Assay (SPA), PKC-βI. It counts as biochemical. Conditions: inhibition value, recombinant human isozyme, 1 μM ATP. How it is done: as §1, §2, §3

The target of another assay is T4, GSK 3-β (Oryctolagus cuniculus, UniProt G1T8E2).
T4 construct: purchased New England Biolabs, Beverly Mass
In words: Glycogen Synthase Kinase 3-β Assay. It counts as biochemical, rabbit. Particulars: for IC50: inhibition value, recombinant rabbit GSK 3-β, PPI-2 substrate; for GSK 3-β % @ 0.1 μM: at 0.1 μM; for GSK 3-β % @ 1 μM: at 1 μM. The procedure:
The inhibitory activity of a compound against Glycogen Synthase Kinase 3-β (GSK 3-β) activity was assessed using a recombinant rabbit GSK 3-β according to the procedure below.
The mixture was reacted for 90 minutes at 30° C. to allow phosphorylation of the PPI-2 protein and then the protein in the reaction was precipitated using 10% trichloroacetic acid (TCA). The precipitated protein was collected on filter plates (MultiScreen-DV, Millipore, Bedford Mass.), which were subsequently washed. Finally, the radioactivity was quantified using a TopCount Scintillation Counter (Packard, Meridian Conn.). […] Staurosporine or Valproate (both available from several commercial sources), known inhibitors of GSK-3-β, were used as a positive control for screening.

A further assay concerns L6 muscle cells. In words: Cell-Based GSK 3-β Assay (glycogen content of L6 muscle cells). Conditions: for 14C-Glucose Incorporation (dpm): L6 cells, 2 hours. How it is done: Glycogen content of L6 muscle cells was measured according to the method described in Berger and Hayes, Anal. Biochem., 1998, 261, 159-163.
Briefly, L6 cells were serum starved overnight in alpha-MEM containing 0.1%. On the following day, cells were washed three times with 300 μL KRPH buffer (150 mM NaCl, 5 mM KCl, 2.9 mM Na2HPO4, 1.25 mM MgSO4, 1.2 mM CaCl2, 10 mM HEPES, pH 7.4) and labeled with 200 μL alpha-MEM containing 5.5 mM ^14C-Glucose (0.1 μCi) in the presence of vehicle (DMSO) or compounds. After 2 hours, cells were washed three times with ice-cold PBS and glycogen was precipitated for 2 hours using ice-cold 66% EtOH. Precipitated glycogen was then washed three times with ice-cold 66% EtOH and ^14C-glycogen was quantified using a TopCount (Packard).
Compounds were tested in separate experiments at the dose levels shown. Where shown, the 0.0 μM dose was used as a control.

T3 sequence (P05771 whole entry): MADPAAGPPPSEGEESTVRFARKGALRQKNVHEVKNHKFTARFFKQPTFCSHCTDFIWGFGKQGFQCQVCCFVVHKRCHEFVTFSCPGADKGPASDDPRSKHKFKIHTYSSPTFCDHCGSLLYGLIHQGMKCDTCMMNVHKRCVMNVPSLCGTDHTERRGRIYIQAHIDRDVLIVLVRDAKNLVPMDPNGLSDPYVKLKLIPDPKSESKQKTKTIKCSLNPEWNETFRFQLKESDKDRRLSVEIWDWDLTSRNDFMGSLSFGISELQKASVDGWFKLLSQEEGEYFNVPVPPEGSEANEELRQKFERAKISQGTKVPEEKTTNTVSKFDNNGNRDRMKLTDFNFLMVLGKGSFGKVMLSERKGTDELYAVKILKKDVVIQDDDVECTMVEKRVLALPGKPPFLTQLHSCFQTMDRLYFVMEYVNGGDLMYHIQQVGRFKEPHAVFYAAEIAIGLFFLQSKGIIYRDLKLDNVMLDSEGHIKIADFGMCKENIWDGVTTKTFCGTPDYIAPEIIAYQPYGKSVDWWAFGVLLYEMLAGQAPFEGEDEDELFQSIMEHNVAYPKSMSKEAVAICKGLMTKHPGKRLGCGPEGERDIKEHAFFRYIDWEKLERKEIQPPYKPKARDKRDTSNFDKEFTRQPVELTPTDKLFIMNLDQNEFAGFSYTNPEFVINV
T1 sequence (P05771 1-673 isoform P05771-2): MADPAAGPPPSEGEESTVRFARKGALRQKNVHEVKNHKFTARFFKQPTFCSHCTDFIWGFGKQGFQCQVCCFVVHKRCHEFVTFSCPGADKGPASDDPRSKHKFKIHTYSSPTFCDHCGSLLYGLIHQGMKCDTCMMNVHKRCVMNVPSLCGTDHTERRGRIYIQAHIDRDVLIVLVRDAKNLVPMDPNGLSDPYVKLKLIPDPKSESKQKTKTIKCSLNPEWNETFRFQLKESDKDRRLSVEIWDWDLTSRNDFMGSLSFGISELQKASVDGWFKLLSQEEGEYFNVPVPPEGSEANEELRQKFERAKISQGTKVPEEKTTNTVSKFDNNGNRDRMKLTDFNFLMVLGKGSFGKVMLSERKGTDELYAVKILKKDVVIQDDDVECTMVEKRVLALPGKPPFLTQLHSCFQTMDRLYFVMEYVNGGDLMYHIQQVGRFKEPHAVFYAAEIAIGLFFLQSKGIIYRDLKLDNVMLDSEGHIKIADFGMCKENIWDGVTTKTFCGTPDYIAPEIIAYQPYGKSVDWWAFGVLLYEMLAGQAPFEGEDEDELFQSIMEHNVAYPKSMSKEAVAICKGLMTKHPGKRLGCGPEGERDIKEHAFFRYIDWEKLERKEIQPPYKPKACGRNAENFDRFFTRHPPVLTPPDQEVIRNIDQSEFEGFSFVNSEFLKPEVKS
T4 sequence (G1T8E2 1-432): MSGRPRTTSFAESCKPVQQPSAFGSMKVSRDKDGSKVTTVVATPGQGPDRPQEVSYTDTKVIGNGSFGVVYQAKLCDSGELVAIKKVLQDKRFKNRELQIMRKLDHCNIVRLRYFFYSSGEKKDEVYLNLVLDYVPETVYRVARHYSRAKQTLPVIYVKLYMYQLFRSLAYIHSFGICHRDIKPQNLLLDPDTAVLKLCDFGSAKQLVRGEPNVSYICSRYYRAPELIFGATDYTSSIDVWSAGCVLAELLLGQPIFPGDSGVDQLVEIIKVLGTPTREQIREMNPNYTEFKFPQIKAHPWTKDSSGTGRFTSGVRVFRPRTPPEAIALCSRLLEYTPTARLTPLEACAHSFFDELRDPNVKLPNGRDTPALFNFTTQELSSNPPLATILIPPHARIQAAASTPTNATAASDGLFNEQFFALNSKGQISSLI

Regarding `O=C1NC(=O)C2=C1c1cn(c3ncccc13)CCOCCOCCOCCOCCOCCn1cc2c2cccnc21` [Cpd 3], the IC50 on PKC α is over 100000 nM; on PKC-βII it was over 100000 nM; at PKC-γ, over 100000 nM; at PKC-βI, over 100000 nM; at GSK 3-β, 33 nM.
`O=C1NC(=O)C2=C1c1cn(c3ccccc13)CCOCCOCCn1cc2c2ccccc21` [Cpd 4]: the IC50 at PKC α is 1220 nM; at PKC-βII, 99 nM; on PKC-γ, 3460 nM; on PKC-βI, 1590 nM; on GSK 3-β, 102 nM.
Regarding `O=C1NC(=O)C2=C1c1cn(c3ccccc13)CCOCCOCCOCCn1cc2c2ccccc21` [Cpd 5], the half-inhibitory concentration (IC50) came out at 412 nM on PKC α; 16 nM at PKC-βII; 1350 nM on PKC-γ; 349 nM on PKC-βI; 49 nM on GSK 3-β. Besides, the “14C-Glucose Incorporation (dpm)” value in the assay with L6 muscle cells (dose 0.01 μM) came out at 2884 dpm; in the assay on L6 muscle cells (dose 0.1 μM), 2988 dpm; in the assay on L6 muscle cells (dose 0.3 μM), 3339 dpm; with L6 muscle cells (dose 3 μM, 0.0 μM control Cpd 1 1640, Cpd 2 2078) it was 3438 dpm; with L6 muscle cells (dose 10 μM, 0.0 μM control Cpd 1 1640, Cpd 2 2078), 4700 dpm. Besides, the “glycogen synthesis in L6 skeletal muscle cells” value with L6 muscle cells (upon exposure to compound, result in words) is “increased glycogen synthesis”.
Regarding `O=C1NC(=O)C2=C1c1cn(c3ccccc13)CCOCCOCCOCCOCCn1cc2c2ccccc21` [Cpd 6], the IC50 on PKC α amounted to 2560 nM; at PKC-βII, 212 nM; on PKC-γ, 4000 nM; on PKC-βI it was 1480 nM; at GSK 3-β, 45 nM.
For `O=C1NC(=O)C2=C1c1cn(c3ccccc13)CCOCCOCCOCCOCCOCCn1cc2c2ccccc21` [Cpd 7] the same measures were 2590 nM, 285 nM, 3260 nM, 3070 nM and 33 nM.
For `O=C1NC(=O)C2=C1c1cn(c3ccccc13)Cc1cccc(c1)Cn1cc2c2cccnc21` [Cpd 8] the same measures were 1530 nM, 288 nM, 783 nM, 1780 nM and 233 nM.
Take `O=C1NC(=O)C2=C1c1cn(c3ccccc13)Cc1cccc(n1)Cn1cc2c2cccnc21` [Cpd 9]: the half-inhibitory concentration (IC50) was determined as 319 nM at PKC α; 35 nM at PKC-βII; 228 nM on PKC-γ; 338 nM on PKC-βI; 164 nM on GSK 3-β.
For `CCN1CCOCCn2cc(c3ccccc32)C2=C(C(=O)NC2=O)c2cn(c3ccccc23)CCOCC1` [Cpd 12], the concentration for half-maximal inhibition (IC50) came to 20 nM on PKC α, 8 nM on PKC-βII, 150 nM on PKC-γ and 33 nM on GSK 3-β.
On to `CN1CCOCCn2cc(c3ccccc32)C2=C(C(=O)NC2=O)c2cn(c3ccccc23)CCOCC1` [Cpd 13], for which the half-inhibitory concentration (IC50) is 50 nM on PKC α, 40 nM at PKC-βII and 370 nM on PKC-γ.
On to `CC(C)N1CCOCCn2cc(c3ccccc32)C2=C(C(=O)NC2=O)c2cn(c3ccccc23)CCOCC1` [Cpd 14], for which the IC50 worked out at 19 nM on PKC α, 15 nM at PKC-βII, 34 nM on PKC-γ and 76 nM on GSK 3-β.
Taken in the same sequence, the figures for `CN1CCN(C)CCn2cc(c3ccccc32)C2=C(C(=O)NC2=O)c2cn(c3ccccc23)CCN(C)CC1` [Cpd 15] were 42 nM, 27 nM, 22 nM and 93 nM.
As for `CN1CCOCCn2cc(c3ccccc32)C2=C(C(=O)NC2=O)c2nn(c3ccccc23)CCOCC1` [Cpd 16], at PKC-βII, the IC50 stood at 63 nM. Further, at GSK 3-β, the “GSK 3-β % @ 0.1 μM” value worked out at 37% @ 0.1 μM.
Consider `CCN1CCOCCn2cc(c3ccccc32)C2=C(C(=O)NC2=O)c2nn(c3ccccc23)CCOCC1` [Cpd 17], for which the IC50 on PKC-βII was determined as 385 nM. Further, on GSK 3-β (at 0.2 μM), the “GSK 3-β % @ 0.2 μM” value was found to be 31% @ 0.2 μM.
As to `CCN1CCOCCn2cc(c3cccnc32)C2=C(C(=O)NC2=O)c2cn(c3ncccc23)CCOCC1` [Cpd 18], at GSK 3-β, the IC50 was 9200 nM.
On the same count and under the same terms, the value for `O=C1NC(=O)C2=C1c1cn(c3ncccc13)CCOCCSCCOCCn1cc2c2cccnc21` [Cpd 19] was 110 nM; that for `O=C1NC(=O)C2=C1c1cn(c3ncccc13)CCCCCNCCCCCn1cc2c2cccnc21` [Cpd 20] was 610 nM.
The same measure, in the same setting: with `CCN1CCCCCn2cc(c3cccnc32)C2=C(C(=O)NC2=O)c2cn(c3ncccc23)CCCCC1` [Cpd 21] the figure was 1440 nM.
Consider `O=C1NC(=O)C2=C1c1cn(c3ncccc13)CCCCCNCCCCn1cc2c2cccnc21` [Cpd 22], for which the “GSK 3-β % @ 1 μM” value at GSK 3-β was found to be 30% @ 1 μM.
Consider `CCN1CCCCCn2cc(c3cccnc32)C2=C(C(=O)NC2=O)c2cn(c3ncccc23)CCCC1` [Cpd 23], for which the “GSK 3-β % @ 1 μM” value at GSK 3-β was determined as 46% @ 1 μM.
As for `O=C1NC(=O)C2=C1c1cn(c3ncccc13)CCCCc1cccc(n1)CCCCn1cc2c2cccnc21` [Cpd 24], the IC50 on GSK 3-β was determined as 210 nM.
Same read-out and setting: the value for `O=C1CCCCCCn2cc(c3cccnc32)C2=C(C(=O)NC2=O)c2cn(c3ncccc23)CCCC1` [Cpd 25] was 80 nM.
Still for that read-out and setting: the value for `O=C1CCCCn2cc(c3cccnc32)C2=C(C(=O)NC2=O)c2cn(c3ncccc23)CCCC1` [Cpd 26] was 90 nM; that for `O=C1NC(=O)C2=C1c1cn(c3ncccc13)C[C@H](O)CCCCCC[C@@H](O)Cn1cc2c2cccnc21` [Cpd 27] was 1180 nM.
For the compound `O=C1NC(=O)C2=C1c1cn(c3ncccc13)CCOCCOCCn1cc2c2cccnc21` [Cpd 28], at GSK 3-β (at 0.5 μM), the “GSK 3-β % @ 0.5 μM” value amounted to 48% @ 0.5 μM.
With `COCCN1CCOCCn2cc(c3ccccc32)C2=C(C(=O)NC2=O)c2nn(c3ccccc23)CCOCC1` [Cpd 29], on PKC-βII, the concentration for half-maximal inhibition (IC50) turned out to be 369 nM. In addition, the “GSK 3-β % @ 0.1 μM” value on GSK 3-β turned out to be 30% @ 0.1 μM.
With `O=C1NC(=O)C2=C1c1cn(c3ccccc13)CCOCCN(CCO)CCOCCn1cc2c2ccccc21` [Cpd 30], the IC50 on PKC-βII turned out to be 11 nM; on GSK 3-β it was 64 nM.
On to `CN1CCCn2cc(c3ccccc32)C2=C(C(=O)NC2=O)c2cn(c3ccccc23)CCOCCOCC1` [Cpd 31], for which the results for the IC50 on PKC α, on PKC-βII and on PKC-γ were 14 nM, 7 nM and 24 nM, respectively.

These data come from patent US6828327B2, “Macroheterocylic compounds useful as kinase inhibitors” (Ortho-McNeil Pharmaceutical, Inc., priority 2000, dated 2004).
